Assay results taken from article PMC7586797, “Phase 1 Study to Evaluate the Effect of the Investigational Anticancer Agent Sapanisertib on the QTc Interval in Patients With Advanced Solid Tumors” (Clinical Pharmacology in Drug Development, 2020).
Several values for one entry are separate records, joined by “and”; a condition that tells them apart may be missing. Equal entries are not always repeated. Where two headings read alike, the source gives them in different places.

What was measured:
CYP and UGT enzymes = test system: CYP and UGT enzymes; design: method as in Takeda, data on file; details: in vitro reaction phenotyping; ref Takeda, data on file; cited from earlier work
[1] = test system: human ether‐à‐go‐go channel; test: In vitro hERG channel inhibition; type: biochemical; details: free Cmax 0.3 µM at 40 mg
[2] = test system: human ether‐à‐go‐go channel; details: in vitro; cited from earlier work
[3] = test system: patients with advanced solid tumors; details: in vivo
Description: The relationships between concentration of sapanisertib and QTc and RR intervals were quantitatively analyzed in the PK/QTc analysis population using PK and ECG data from all patients. The data were first explored by graphical analysis, including a visual check for evidence of hysteresis. Mixed‐effects models were subsequently developed to describe the direct effect of sapanisertib on change from time‐matched baseline in RR, QTcI, and QTcF.
Standard diagnostic and goodness‐of‐fit plots were used for model evaluation and adequacy, plausibility, and precision of parameter estimates. A visual predictive check for the final model was generated to evaluate whether the model provided an accurate description of the data. The estimated parameters were reported with the standard error of the estimates as a measure of uncertainty, and nonparametric bootstrap resampling was used to construct 95%CI for the population parameters in each model. All model development was conducted with a qualified installation of the nonlinear mixed‐effects modeling software, version 7.3 (ICON Development Solutions, Hanover, Maryland). All data analyses were conducted using a qualified installation of the statistical software R.
A linear mixed‐effects model was used to characterize the direct effect of sapanisertib plasma concentration on ΔQTcI. […] The linear mixed‐effects model of sapanisertib plasma concentration versus ΔQTcI was subsequently used to predict the effect of sapanisertib on QTcI at the expected Cmax values for 4‐, 30‐, and 40‐mg sapanisertib doses. […] Model‐based simulations from the fitted model for ΔQTcI versus sapanisertib plasma concentration were used to generate CIs across the range of observed concentrations and to estimate the probability of patient ΔQTcI values exceeding 30‐ and 60‐millisecond thresholds at Cmax values corresponding to the 4‐, 30‐, and 40‐mg doses (Table 4).

[4] = test system: organic cation transporter 2; design: method as in Takeda data on file; details: in vitro; ref Takeda data on file; cited from earlier work
[5] = test system: patients with advanced solid tumors; test: Dedicated QTc study: serial triplicate Holter ECGs, change from time-matched baseline; type: in vivo, human; details: for LSM QTcF Change (95% UCB) from time-matched baseline / LSM QTcI Change (95% UCB) from time-matched baseline / LSM heart rate change (95% UCB) from time-matched baseline: 40 mg single oral dose
Description: The study was conducted at 5 centers across the United States (Montefiore Medical Center, Bronx, New York; Washington University School of Medicine, Saint Louis, Missouri; Stephenson Cancer Center, University of Oklahoma, Oklahoma City, Oklahoma; Mary Crowley Cancer Research Center, Dallas, Texas; and Florida Cancer Specialists/Sarah Cannon Research Institute, Sarasota, Florida) to evaluate the effect of a single oral dose of sapanisertib (40 mg) on the electrocardiographic QT/QTc interval in patients with advanced solid tumors (NCT02197572, clinicaltrials.gov). The primary end point was change from time‐matched baseline in the QTc interval (ΔQTc).
Patients reported to the study sites on day –1 for collection of serial baseline triplicate ECGs prior to sapanisertib administration (described in the ECG Assessments section). […] The patients were equipped with 12 ECG leads to continuously record patient ECG data onto a Holter H12+ ECG recorder. All procedures that were followed on day –1 were consistent with procedures expected for day 1, with the exception of plasma sample collection for PK assessments, since no sapanisertib was administered on day –1. After collection of the 10‐hour time point ECG on day –1, the patients were furloughed from the study site with Holter recorders still attached. These Holter recorders were to remain attached overnight to continue to collect ECG data into day 1.
On cycle 1 day 1, triplicate ECGs and plasma samples for PK were collected from patients ≤15 minutes prior to dosing and at 15 minutes; 30 minutes; and 1‐, 1.5‐, 2‐, 2.5‐, 3‐, 4‐, 6‐, 8‐, and 10‐hour time points after receiving a single oral dose of 40‐mg sapanisertib. The Holter recorders and ECG leads were removed from patients after collection of the 10‐hour time point ECG on day 1, following which patients were furloughed from site. Additional collections of ECGs and plasma samples for PK were conducted at 24 (cycle 1 day 2) and 48 hours (cycle 1 day 3) after dosing. After the first week, that is, cycle 1 day 8, patients had the option to continue to receive treatment with sapanisertib at a dose of 30 mg once weekly in continuous 28‐day cycles until disease progression, unacceptable toxicity, withdrawal of consent, or completion of the 12‐month maximum study duration.
To enable collection of time‐matched ECG and PK data before and after sapanisertib administration, patients reported to the study sites on day –1, during which ECG leads (12 leads) and Holter H12+ ECG recorders were attached. Each planned ECG collection time point was preceded by a 5‐minute supine rest period, after which triplicate ECGs were extracted from the Holter recorders at approximately 2‐ to 5‐minute intervals. Serial triplicate ECGs were collected from 0 to 10 hours, matched to the planned dosing on cycle 1 day 1 predose and postdose ECG and PK time points, to characterize the baseline ECG and QTc interval. All triplicate ECGs were extracted and read centrally (Biotelemetry, Malvern, Pennsylvania). All blood draws for PK were collected after the triplicate ECG collection period.
The baseline characterization of serial triplicate ECG allowed for patient‐specific individual heart rate correction (QTcI) in addition to the Fridericia's ( QTcF=QT/RR3 ) correction that is commonly used in clinical practice. The patient‐specific slopes were calculated using all pairs of QT and RR (time elapsing between two consecutive R waves in an ECG) interval data collected on day –1 and estimated using the linear regression expression: logQT=loga+b∗logRR to calculate the individual slope (b) for each patient. QTcI was then calculated as QTcI=QT/RR^b
ECG analysis was conducted in the primary analysis population, which included patients who had all time points collected on Holter ECG monitoring on day –1 and day 1 of cycle 1, including ECG time points collected on cycle 1 day 1 to cycle 1 day 3 at 24 or 48 hours after dosing that had available baseline comparisons. […]

[6] = cited from earlier work; for Geometric Mean Cmax: fasted, immediate release capsules, advanced solid tumors, ref data on file 14
[7] = test system: breast cancer‐ resistance protein; design: method as in Takeda data on file; details: in vitro; ref Takeda data on file; cited from earlier work
[8] = after 40 mg dose, 32 evaluable patients

CC(C)n1nc(-c2ccc3oc(N)nc3c2)c2c(N)ncnc21 [sapanisertib]
CYP enzymes participating in oxidative metabolism (CYP and UGT enzymes): CYP1A2, 3A4, and 2C19
hERG IC50 as multiple of anticipated free Cmax [1]: ~583 times
IC50 [2]: 175 µM
Estimated probability that ΔQTcF would exceed 30 milliseconds or 60 milliseconds ([3]; human): < 0.0001
Association of ΔQTcF with plasma concentration [3]: weakly negative association
Association of ΔQTcI with plasma concentration [3]: weakly negative association
Association of ΔRR with plasma concentration [3]: weakly positive association
IC50 [4]: 1.9 µM
LSM QTcF Change (95% UCB) from time-matched baseline ([5]; 0.25 h after dose): –1.7 (2.2) msec
LSM QTcI Change (95% UCB) from time-matched baseline ([5]; 0.25 h after dose): –2.2 (2.2) msec
LSM heart rate change (95% UCB) from time-matched baseline ([5]; 0.25 h after dose): –0.2 (2.2) bpm
LSM QTcF Change (95% UCB) from time-matched baseline ([5]; 0.5 h after dose): –5.3 (–1.5) msec
LSM QTcI Change (95% UCB) from time-matched baseline ([5]; 0.5 h after dose): –8.3 (–4.0) msec
LSM heart rate change (95% UCB) from time-matched baseline ([5]; 0.5 h after dose): –4.4 (–1.9) bpm
LSM QTcF Change (95% UCB) from time-matched baseline ([5]; 1 h after dose): 1.8 msec and 1.8 (5.6) msec
LSM QTcI Change (95% UCB) from time-matched baseline ([5]; 1 h after dose): –1.8 (2.6) msec
LSM heart rate change (95% UCB) from time-matched baseline ([5]; 1 h after dose): –3.8 (–1.4) bpm
LSM QTcF Change (95% UCB) from time-matched baseline ([5]; 1.5 h after dose): 0.1 (4.0) msec
LSM QTcI Change (95% UCB) from time-matched baseline ([5]; 1.5 h after dose): –2.7 (1.7) msec
LSM heart rate change (95% UCB) from time-matched baseline ([5]; 1.5 h after dose): –3.3 (–0.9) bpm
LSM QTcF Change (95% UCB) from time-matched baseline ([5]; 2 h after dose): –3.7 (0.1) msec
LSM QTcI Change (95% UCB) from time-matched baseline ([5]; 2 h after dose): –5.0 (–0.6) msec
LSM heart rate change (95% UCB) from time-matched baseline ([5]; 2 h after dose): –0.8 (1.5) bpm
LSM QTcF Change (95% UCB) from time-matched baseline ([5]; 2.5 h after dose): –7.4 (–3.6) msec
LSM QTcI Change (95% UCB) from time-matched baseline ([5]; 2.5 h after dose): –7.6 (–3.2) msec
LSM heart rate change (95% UCB) from time-matched baseline ([5]; 2.5 h after dose): 0.1 (2.5) bpm
LSM QTcF Change (95% UCB) from time-matched baseline ([5]; 3 h after dose): –7.6 (–3.7) msec
LSM QTcI Change (95% UCB) from time-matched baseline ([5]; 3 h after dose): –9.1 (–4.6) msec
LSM heart rate change (95% UCB) from time-matched baseline ([5]; 3 h after dose): –0.1 (2.3) bpm
LSM QTcF Change (95% UCB) from time-matched baseline ([5]; 4 h after dose): –8.0 (–4.2) msec
LSM QTcI Change (95% UCB) from time-matched baseline ([5]; 4 h after dose): –7.2 (–2.9) msec
LSM heart rate change (95% UCB) from time-matched baseline ([5]; 4 h after dose): –0.2 (2.2) bpm
LSM QTcF Change (95% UCB) from time-matched baseline ([5]; 6 h after dose): –10.1 (–6.4) msec
LSM QTcI Change (95% UCB) from time-matched baseline ([5]; 6 h after dose): –8.8 (–4.6) msec
LSM heart rate change (95% UCB) from time-matched baseline ([5]; 6 h after dose): 4.8 (7.1) bpm
LSM QTcF Change (95% UCB) from time-matched baseline ([5]; 8 h after dose): –4.2 (–0.3) msec
LSM QTcI Change (95% UCB) from time-matched baseline ([5]; 8 h after dose): –2.2 (2.4) msec
LSM heart rate change (95% UCB) from time-matched baseline ([5]; 8 h after dose): 6.9 (9.4) bpm
LSM QTcF Change (95% UCB) from time-matched baseline ([5]; 10 h after dose): –12.5 (–7.1) msec
LSM QTcI Change (95% UCB) from time-matched baseline ([5]; 10 h after dose): –6.6 (–0.5) msec
LSM heart rate change (95% UCB) from time-matched baseline ([5]; 10 h after dose): 8.6 bpm and 8.6 (12.1) bpm
LSM QTcF Change (95% UCB) from time-matched baseline ([5]; 24 h after dose): 0.8 (4.5) msec
LSM QTcI Change (95% UCB) from time-matched baseline ([5]; 24 h after dose): 7.1 msec and 7.1 (11.4) msec
LSM heart rate change (95% UCB) from time-matched baseline ([5]; 24 h after dose): 12.4 bpm and 12.4 (14.7) bpm
LSM QTcF Change (95% UCB) from time-matched baseline ([5]; 48 h after dose): 1.2 msec and 1.2 (5.8) msec
LSM QTcI Change (95% UCB) from time-matched baseline ([5]; 48 h after dose): 2.8 (8.1) msec
LSM heart rate change (95% UCB) from time-matched baseline ([5]; 48 h after dose): 5.4 (8.3) bpm
Clinically relevant (>20 milliseconds) effect on the QT interval ([5]; 40 mg, patients with advanced solid tumors): does not produce clinically relevant (ie, >20 milliseconds) effects on the QT interval
Patients with PR >200 msec [5, 8]: 1 (3.1) n (%)
Patients with QRS >110 msec [5, 8]: 0 (0) n (%)
Patients with QTcF >450 msec [5, 8]: 2 (6.3) n (%)
Patients with QTcF >480 msec [5, 8]: 0 (0) n (%)
Patients with QTcF >500 msec [5, 8]: 0 (0) n (%)
Patients with QTcI >450 msec [5, 8]: 6 (18.8) n (%)
Patients with QTcI >480 msec [5, 8]: 1 (3.1) n (%)
Patients with QTcI >500 msec [5, 8]: 0 (0) n (%)
Patients with ΔPR >25% at any time point [5, 8]: 1 (3.1) n (%)
Patients with ΔQRS >25% at any time point [5, 8]: 0 (0) n (%)
Patients with ΔQTcF >30 msec at any time point [5, 8]: 2 (6.3) n (%)
Patients with ΔQTcF >60 msec at any time point [5, 8]: 0 (0) n (%)
Patients with ΔQTcI >30 msec at any time point [5, 8]: 5 (15.6) n (%)
Patients with ΔQTcI >60 msec at any time point [5, 8]: 1 (3.1) n (%)
Patients with ΔQTcI between 30 and 60 milliseconds ([5]; after 40 mg dose, of the 6 patients with prolonged QTcI, 32 evaluable): 4 patients
Geometric Mean Cmax ([6]; 4 mg once daily): 36.9 ng/mL ^a
Geometric Mean Cmax ([6]; 30 mg once weekly): 235 ng/mL ^b
Anticipated free maximum plasma concentration (Cmax) ([6]; 40 mg, cancer patients): 300 nM
Cmax ([6]; 40 mg, cancer patients, read-out: Total Cmax): 960 nM
Dose linearity of pharmacokinetics ([6]; 2- to 40-mg dose range): dose‐linear pharmacokinetics
Accumulation ratio ([6]; once-daily administration): ~1
Accumulation ([6]; once-weekly administration): does not accumulate
IC50 [7]: 51.9 µM
